Data on seven molecules can be found in patent US8802634B2, “CD40-L Inhibitory Peptides” (Phylogica Limited, priority 2008, dated 2014).

The target of experiment [1] is CD40L-induced CD86 expression on primary B-cells (Homo sapiens, UniProt P29965). The experiment is described as follows: Inhibition of CD40L-induced CD86 expression on primary B-cells (FACS). It counts as cell-based. The settings on record: for inhibition of CD40L-induced CD86 expression (qualitative): figure legends; for EC50: PEGylated monomeric peptide, read-out: EC50 PEGylated peptide. The method, then: In one example, the ability of a peptide, analog or derivative of the invention to inhibit or reduce or delay expression of CD86 on primary B-cells was determined in the presence and absence of the peptides, analogs and derivatives of the invention. In particular, CD86 expression was determined by FACS.
Chain of CD40L-induced CD86 expression on primary B-cells (P29965 whole entry): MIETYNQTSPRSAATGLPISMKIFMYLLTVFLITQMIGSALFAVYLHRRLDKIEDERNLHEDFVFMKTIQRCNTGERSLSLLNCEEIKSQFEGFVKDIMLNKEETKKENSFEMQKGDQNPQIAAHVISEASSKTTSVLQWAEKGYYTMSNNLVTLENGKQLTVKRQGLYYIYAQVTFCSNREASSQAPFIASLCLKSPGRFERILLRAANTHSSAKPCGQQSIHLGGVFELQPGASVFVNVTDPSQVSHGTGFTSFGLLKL
Chain of CD40L-induced CD86 expression on primary B-cells (P25942 21-277 partner): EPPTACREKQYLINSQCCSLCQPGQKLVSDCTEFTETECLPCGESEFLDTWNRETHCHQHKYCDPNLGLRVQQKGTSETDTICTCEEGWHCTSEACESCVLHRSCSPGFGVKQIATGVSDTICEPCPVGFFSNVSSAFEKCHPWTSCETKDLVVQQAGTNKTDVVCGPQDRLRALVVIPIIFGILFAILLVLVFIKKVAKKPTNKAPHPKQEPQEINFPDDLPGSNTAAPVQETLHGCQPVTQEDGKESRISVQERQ
In these assays, CD40L induced CD86 expression in a concentration-dependent manner in the absence of a peptidyl inhibitor of the present invention with an EC50 value of about 9 nM (FIG. 6d, 6e). As a control in these assays, LPS-induced expression of CD86 mediated by the Toll-like receptors TLR 2/4, and TNFα-induced cytoxicity, were also assayed to exclude effects mediated by ligands other than CD40L.
In a similar series of bioassays, dimeric forms of the CD40L peptide inhibitors were also tested for their ability to inhibit or reduce CD40L-induced expression of CD86 on primary B-cells.

A further experiment addresses T1, CD40L/CD40-Fc (Homo sapiens, UniProt P29965).
T1 sequence (P29965 113-261 limits assumed): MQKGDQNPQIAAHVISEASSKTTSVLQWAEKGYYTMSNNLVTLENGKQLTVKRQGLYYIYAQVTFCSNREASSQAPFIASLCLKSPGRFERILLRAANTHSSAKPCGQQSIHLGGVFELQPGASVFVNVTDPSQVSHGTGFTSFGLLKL
The experiment is described as follows: Chemiluminescent proximity assay (Alphascreen) of CD40L-CD40 interaction. The class given is binding. The method, then: In one example, the Alphascreen assay (PerkinElmer) was employed according to the manufacturer's instructions.
Homodimers and heterodimers were also assayed by chemiluminescent proximity assay for their ability to inhibit CD40L-CD40 interaction.
(In general: Bead proximity is the source of the signal in Alpha formats.)

One may read the IC50 as the concentration needed to halve the response being measured. A higher IC50 goes with a need for much substance.

Structures are written as SMILES. Where two headings read alike, the source gives them in different places. Where a SMILES comes first, the peptide text is derived from it. Bridges are numbered along the chain shown (N, C = ends). Roman numbers before positions name the chains, in order. [ ]: non-standard residue; d: D form. AEEA = NCCOCCOCC(=O)O

Consider `CC[C@H](C)[C@H](NC(=O)[C@H](CO)NC(=O)[C@H](Cc1c[nH]c2ccccc12)NC(=O)[C@H](CCC(N)=O)NC(=O)[C@@H](NC(=O)[C@@H]1CCCN1C(=O)[C@H](Cc1ccccc1)NC(=O)[C@H](Cc1ccccc1)NC(=O)[C@H](Cc1c[nH]c2ccccc12)NC(=O)CNC(=O)[C@H](Cc1ccc(O)cc1)NC(=O)[C@H](CCCCN)NC(=O)[C@H](CC(C)C)NC(=O)[C@@H](NC(=O)[C@H](Cc1c[nH]cn1)NC(=O)[C@H](CO)NC(=O)[C@H](CCCNC(=N)N)NC(=O)[C@H](Cc1ccc(O)cc1)NC(=O)[C@@H]1CCCN1C(=O)[C@@H](NC(=O)[C@H](Cc1ccccc1)NC(=O)[C@@H]1CCCN1C(=O)[C@@H](N)CC(C)C)C(C)C)C(C)C)C(C)C)C(=O)N[C@@H](Cc1ccccc1)C(=O)N[C@@H](C)C(=O)N[C@H](C(=O)N[C@@H](CC(C)C)C(=O)N1CCC[C@H]1C(=O)N[C@@H](Cc1ccccc1)C(=O)N[C@@H](CCC(N)=O)C(=O)N[C@@H](Cc1ccc(O)cc1)C(=O)N[C@@H](CC(C)C)C(=O)N[C@@H](Cc1c[nH]cn1)C(=O)N[C@@H](CCCNC(=N)N)C(=O)N[C@@H](CS)C(=O)N[C@@H](CCCNC(=N)N)C(=O)O)C(C)C` [CD40L M1_18] (H-LPFVPYRSHVLKYGWFFPVQWSIFAVLPFQYLHRCR-OH; N-terminus and C-terminus assumed), for which, in experiment [1], the “inhibition of CD40L-induced CD86 expression (qualitative)” value (“inhibition … (qualitative)” for short) is given as “concentration-dependent inhibition”. Also, the half-maximal inhibitory concentration (IC50) in experiment [1] (monomeric peptide, concentration-dependent) is < 500 nM. Consider `CC[C@@H](C)[C@@H](NC(=O)[C@@H](Cc1ccccc1)NC(=O)[C@@H](C)NC(=O)[C@H](NC(=O)[C@@H](CC(C)C)NC(=O)[C@H]1CCCN1C(=O)[C@@H](Cc1ccccc1)NC(=O)[C@@H](CCC(N)=O)NC(=O)[C@@H](Cc1ccc(O)cc1)NC(=O)[C@@H](CC(C)C)NC(=O)[C@@H](Cc1c[nH]cn1)NC(=O)[C@@H](CCCNC(=N)N)NC(=O)[C@@H](CS)NC(=O)[C@H](N)CCCNC(=N)N)C(C)C)C(=O)N[C@H](CO)C(=O)N[C@H](Cc1c[nH]c2ccccc12)C(=O)N[C@H](CCC(N)=O)C(=O)N[C@@H](C(=O)N1CCC[C@@H]1C(=O)N[C@H](Cc1ccccc1)C(=O)N[C@H](Cc1ccccc1)C(=O)N[C@H](Cc1c[nH]c2ccccc12)C(=O)NCC(=O)N[C@H](Cc1ccc(O)cc1)C(=O)N[C@H](CCCCN)C(=O)N[C@H](CC(C)C)C(=O)N[C@@H](C(=O)N[C@H](Cc1c[nH]cn1)C(=O)N[C@H](CO)C(=O)N[C@H](CCCNC(=N)N)C(=O)N[C@H](Cc1ccc(O)cc1)C(=O)N1CCC[C@@H]1C(=O)N[C@@H](C(=O)N[C@H](Cc1ccccc1)C(=O)N1CCC[C@@H]1C(=O)N[C@H](CC(C)C)C(=O)O)C(C)C)C(C)C)C(C)C` [CD40L M1_18rd] (H-[dR][dC][dR][dH][dL][dY][dQ][dF][dP][dL][dV][dA][dF][dI][dS][dW][dQ][dV][dP][dF][dF][dW]G[dY][dK][dL][dV][dH][dS][dR][dY][dP][dV][dF][dP][dL]-OH; N-terminus and C-terminus assumed), for which, in experiment [1], the “inhibition … (qualitative)” value is “enhanced inhibition”.

`CC[C@H](C)[C@H](NC(=O)[C@H](CCC(N)=O)NC(=O)[C@H](Cc1ccccc1)NC(=O)[C@H](Cc1ccccc1)NC(=O)[C@H](CCC(=O)O)NC(=O)[C@H](CCCNC(=N)N)NC(=O)CNC(=O)[C@H](C)NC(=O)[C@H](C)NC(=O)[C@@H](N)CC(=O)O)C(=O)N[C@@H](C)C(=O)NCC(=O)N[C@@H](CC(C)C)C(=O)N[C@@H](Cc1ccccc1)C(=O)N[C@@H](CO)C(=O)N[C@@H](Cc1ccccc1)C(=O)N[C@@H](CCCNC(=N)N)C(=O)N[C@@H](Cc1c[nH]cn1)C(=O)N[C@@H](Cc1c[nH]cn1)C(=O)N[C@@H](Cc1c[nH]c2ccccc12)C(=O)N[C@@H](Cc1c[nH]c2ccccc12)C(=O)N[C@@H](CCC(N)=O)C(=O)N[C@@H](C)C(=O)O` [CD40L M1_30s] (H-DAAGREFFQIAGLFSFRHHWWQA-OH; N-terminus and C-terminus assumed): the EC50 in experiment [1] was > 2000 nM. The same measure, in the same setting: the result for `CC[C@H](C)[C@H](NC(=O)CNC(=O)CNC(=O)[C@H](CCCNC(=N)N)NC(=O)[C@H](CCC(N)=O)NC(=O)[C@@H](NC(=O)CNC(=O)[C@H](CO)NC(=O)[C@@H]1CCCN1C(=O)[C@@H](NC(=O)[C@H](Cc1ccccc1)NC(=O)[C@H](CC(C)C)NC(=O)[C@H](CO)NC(=O)[C@H](Cc1ccc(O)cc1)NC(=O)[C@H](Cc1ccccc1)NC(=O)[C@H](CCCNC(=N)N)NC(=O)[C@H](CC(N)=O)NC(=O)[C@H](CCCNC(=N)N)NC(=O)[C@@H](NC(=O)[C@H](Cc1c[nH]c2ccccc12)NC(=O)[C@H](CCCNC(=N)N)NC(=O)[C@@H]1CCCN1)C(C)C)C(C)C)C(C)C)C(=O)N[C@@H](Cc1c[nH]cn1)C(=O)N[C@@H](CC(C)C)C(=O)N[C@@H](Cc1c[nH]c2ccccc12)C(=O)N[C@@H](Cc1ccccc1)C(=O)N[C@@H](CO)C(=O)N[C@@H](CC(N)=O)C(=O)N[C@@H](Cc1c[nH]c2ccccc12)C(=O)N[C@H](C(=O)N[C@@H](CCCNC(=N)N)C(=O)O)C(C)C` [CD40L M1_50s] (H-PRWVRNRFYSLFVPSGVQRGGIHLWFSNWVR-OH; N-terminus and C-terminus assumed) reads 30 nM. `CC[C@H](C)[C@H](NC(=O)[C@H](CC(C)C)NC(=O)[C@H](CCC(N)=O)NC(=O)[C@H](Cc1ccccc1)NC(=O)[C@H](Cc1ccc(O)cc1)NC(=O)[C@H](Cc1ccc(O)cc1)NC(=O)[C@H](CCCCN)NC(=O)[C@H](Cc1ccccc1)NC(=O)[C@H](CCCNC(=N)N)NC(=O)[C@H](CO)NC(=O)[C@H](Cc1ccc(O)cc1)NC(=O)[C@H](CCCNC(=N)N)NC(=O)[C@H](Cc1c[nH]c2ccccc12)NC(=O)[C@H](Cc1c[nH]cn1)NC(=O)[C@H](Cc1ccc(O)cc1)NC(=O)[C@H](CCC(N)=O)NC(=O)[C@@H](NC(=O)[C@@H](N)CO)[C@@H](C)CC)C(=O)N[C@@H](Cc1c[nH]c2ccccc12)C(=O)N[C@H](C(=O)N[C@@H](Cc1ccc(O)cc1)C(=O)N[C@@H](Cc1ccc(O)cc1)C(=O)N[C@@H](CO)C(=O)N[C@@H](Cc1c[nH]cn1)C(=O)N[C@H](C(=O)O)C(C)C)C(C)C` [CD40L M1_82s] (H-SIQYHWRYSRFKYYFQLIWVYYSHV-OH; N-terminus and C-terminus assumed): at CD40L/CD40-Fc (PEGylated Cys-Ser derivative, read-out: EC50(PEGylated) CD40L/CD40-Fc/BAF617), the EC50 worked out at 120 nM.

Take `CC[C@H](C)[C@H](NC(=O)[C@@H](NC(=O)[C@H](CCCCN)NC(=O)[C@@H](NC(=O)[C@H](Cc1ccc(O)cc1)NC(=O)[C@H](CC(C)C)NC(=O)[C@@H](N)CC(C)C)C(C)C)C(C)C)C(=O)N[C@@H](CS)C(=O)N[C@@H](Cc1ccccc1)C(=O)N[C@@H](Cc1ccccc1)C(=O)N[C@@H](CS)C(=O)N[C@@H](CCSC)C(=O)N[C@@H](CC(C)C)C(=O)N[C@H](C(=O)N[C@@H](CCC(N)=O)C(=O)N[C@@H](Cc1ccc(O)cc1)C(=O)N[C@@H](CC(N)=O)C(=O)N[C@@H](CC(N)=O)C(=O)N[C@@H](Cc1ccccc1)C(=O)N[C@@H](CCC(N)=O)C(=O)N[C@H](C(=O)N[C@@H](Cc1ccc(O)cc1)C(=O)N[C@@H](CCCCN)C(=O)O)[C@@H](C)O)C(C)C` [CD40L M2_159] (H-LLYVKVICFFCMLVQYNNFQTYK-OH; N-terminus and C-terminus assumed): the EC50 on CD40L/CD40-Fc (unmodified (non-PEGylated) monomeric base peptide; read-out: EC50nmodified) CD40L/CD40-Fc/BAF617) was 120 nM.

For `CC[C@H](C)[C@H](NC(=O)[C@H](CO)NC(=O)[C@H](Cc1ccccc1)NC(=O)[C@@H](NC(=O)[C@H](CC(N)=O)NC(=O)[C@H](CCCCN)NC(=O)[C@@H](NC(=O)[C@H](CO)NC(=O)[C@H](Cc1ccccc1)NC(=O)[C@@H]1CCCN1C(=O)[C@H](Cc1c[nH]cn1)NC(=O)COCCOCCNC(=O)[C@@H](N)CSSC[C@H](N)C(=O)NCCOCCOCC(=O)N[C@@H](Cc1c[nH]cn1)C(=O)N1CCC[C@H]1C(=O)N[C@@H](Cc1ccccc1)C(=O)N[C@@H](CO)C(=O)N[C@H](C(=O)N[C@@H](CCCCN)C(=O)N[C@@H](CC(N)=O)C(=O)N[C@H](C(=O)N[C@@H](Cc1ccccc1)C(=O)N[C@@H](CO)C(=O)N[C@H](C(=O)N[C@@H](Cc1c[nH]c2ccccc12)C(=O)N[C@@H](CC(N)=O)C(=O)N[C@@H](Cc1ccccc1)C(=O)N[C@@H](Cc1ccccc1)C(=O)N[C@@H](CO)C(=O)N[C@H](C(=O)N[C@@H](Cc1ccc(O)cc1)C(=O)O)C(C)C)[C@@H](C)CC)C(C)C)[C@@H](C)CC)[C@@H](C)CC)C(C)C)C(=O)N[C@@H](Cc1c[nH]c2ccccc12)C(=O)N[C@@H](CC(N)=O)C(=O)N[C@@H](Cc1ccccc1)C(=O)N[C@@H](Cc1ccccc1)C(=O)N[C@@H](CO)C(=O)N[C@H](C(=O)N[C@@H](Cc1ccc(O)cc1)C(=O)O)C(C)C` [Cys_M1_6S homodimer] (I: H-C[AEEA]HPFSIKNVFSIWNFFSVY-OH / II: H-C[AEEA]HPFSIKNVFSIWNFFSVY-OH; disulfide I:1-II:1; C-terminus assumed), in experiment [1], the “inhibition … (qualitative)” value is listed as “enhanced inhibition”. Besides, the “inhibition of CD40L-CD40 interaction relative to monomeric peptide controls” value on CD40L/CD40-Fc (qualitative) is “enhanced inhibition”.
